Patent US6939990B2, “Derivatives of dicarboxylic acid having pharmaceutical properties” (Bayer Aktiengesellschaft, priority 2001, dated 2005)
Structures can show the parent of a compound that is named as a salt.

System: not given
Assay: not given
Settings: not given

| melting point [°C] | Structure (SMILES) |
| --- | --- |
| > 250 | O=C(O)CCCCN(CCc1cc(F)ccc1COc1ccc(C2CCCCC2)cc1)Cc1ccc(C(=O)O)cc1 [Example 12, 4-{[(4-Carboxybutyl)(2-{2-[(4-cyclohexylphenoxy)methyl]-5-fluorophenyl}ethyl)amino]methyl}benzoic acid] |

System: arteria saphena rings
Assay: Vasorelaxant effect in vitro (phenylephrine-contracted arteria saphena rings)
Format: cell-based, Rabbits
Settings: Oryctolagus cuniculus; rabbit arteria saphena rings, contractions generated by phenylephrine, 0.1% DMSO; read-out: IC50, concentration necessary to reduce the height of the contraction of the control value by 50%
Description: Vasorelaxant Effect In Vitro
Rabbits are anesthetized or killed by intravenous injection of thiopental sodium (about 50 mg/kg) and exsanguinated. The arteria saphena is removed and divided into rings 3 mm wide. The individual rings are in each case mounted on a pair of hooks of triangular shape, open at the end and made of special wire (Remanium®) having a diameter of 0.3 mm. Under pretension, each ring is introduced into a 5 ml organ bath containing carbogen-gassed Krebs-Henseleit solution at 37° C. with the following composition (mM): NaCl: 119; KCl: 4.8; CaCl2×2H2O: 1; MgSO4×7H2O: 1.4; KH2PO4: 1.2; NaHCO3: 25; glucose: 10; bovine serum albumin: 0.001%. The force of contraction is detected with Statham UC2 cells, amplified and digitized via A/D converters (DAS-1802 HC, Keithley Instruments, Munich) and recorded in parallel on chart recorders. Contractions are generated by adding phenylephrine.
After several (generally 4) control cycles, the substance to be investigated is added in each further run in increasing dosage in each case, and the height of the contraction reached under the influence of the test substance is compared with the height of the contraction reached in the last preceding run. The concentration necessary to reduce the height of the control value by 50% (IC50) is calculated from this. The standard application volume is 5 μl. The DMSO content in the bath solution corresponds to 0.1%.

| IC50 [nM] | Structure (SMILES) |
| --- | --- |
| 55 | O=C(O)CCCCN(Cc1ccc(C(=O)O)cc1)Cc1cccc(Oc2ccc(-c3ccc(C(F)(F)F)cc3)cc2)c1 [Example 2] |
| 0.041 | O=C(O)CCCCN(CCc1ccccc1OC(F)(F)c1ccc(-c2ccc(C(F)(F)F)cc2)cc1)Cc1ccc(C(=O)O)cc1 [Example 6, 4-({(4-Carboxybutyl)[2-(2-{difluoro[4′-(trifluoromethyl)-1,1′-biphenyl-4-yl]methoxy}phenyl)ethyl]amino}methyl)benzoic acid] |
| 0.26 | O=C(O)CCCCN(CCc1cc(F)ccc1COc1ccc(-c2ccc(C(F)(F)F)cc2)cc1)Cc1ccc(C(=O)O)cc1 [Example 17] |
| 36 | O=C(O)CCCCN(Cc1ccc(C(=O)O)cc1)Cc1cccc(Oc2ccc(C3CCCCC3)cc2)c1 [Example 3, 4-({(4-Carboxybutyl)[3-(4-cyclohexylphenoxy)benzyl]amino}methyl)-benzoic acid hydrochloride] |
| 0.4 | O=C(O)CCCCN(CCc1cc(F)ccc1COc1ccc(C2CCCCC2)cc1)Cc1ccc(C(=O)O)cc1 [Example 12, 4-{[(4-Carboxybutyl)(2-{2-[(4-cyclohexylphenoxy)methyl]-5-fluorophenyl}ethyl)amino]methyl}benzoic acid] |
